The values below come from PubChem BioAssay AID434987 (Southern Research Specialized Biocontainment Screening …, 2010).

The subject of this test is M. tuberculosis H37Rv growth inhibition with meropenem. Nature of the test: dose response, H37Rv, with and without meropenem (AID 434987).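 Also: growth over 7 days at 37 °C before Alamar Blue read on day 9.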
Where [1] appears, read: M. tuberculosis H37Rv growth inhibition, measured here: IC50 without meropenem.
Setting [2] is: M. tuberculosis H37Rv growth inhibition, measured here: IC90 without meropenem.
Setting [3] is: measured here: IC90 with meropenem.

The source made the active and inactive calls. No rule for the calls is given here. Some results are limits rather than exact numbers.

As for `COC(=O)C1=C(C)NC(=O)/C1=C\c1cc(C)n(-c2cc(C)cc(C)c2)c1C`, the IC50 is 88.9 µM (inactive). Under setting [1], this compound displayed an IC50 of 97.9 µM. Besides, the IC90 under setting [2] is > 100 µM. Also, under setting [3], the concentration for an effect of 90% (IC90) is > 100 µM.
In the case of `CCN(CC)C(=O)COc1ccc(-c2nnc(Nc3ccc(OC)c(C(=O)NC)c3)c3ccccc23)cc1`, the IC50 is 68.8 µM (inactive). Further, under setting [1], the half-inhibitory concentration (IC50) was determined as 82.3 µM. The 90% effect concentration (IC90) under setting [2] was > 100 µM. In addition, under setting [3], the 90% effect concentration (IC90) was > 100 µM.
For the compound `O=c1oc(-c2ccco2)nc2sc3c(c12)CCCCC3`, the IC50 is 9.28 µM. This compound returned a half-maximal inhibitory concentration (IC50) under setting [1] of 67.6 µM. The same compound had an IC90 under setting [2] of 90.2 µM. This compound also displayed a 90% effect concentration (IC90) under setting [3] of 38.5 µM.
The corresponding values for `COc1cc(OC)c(C(=O)Nc2cccc3ccccc23)cc1OC` are > 100 µM (inactive), > 100 µM, > 100 µM and > 100 µM.
Regarding `CCC1Nc2ncnc(N3CCN(c4ccccc4)CC3)c2N(Cc2ccc(Br)cc2)C1=O` (stereo not drawn), the IC50 is > 100 µM (inactive). Besides, the IC50 under setting [1] was > 100 µM. In addition, the IC90 under setting [2] was > 100 µM. Besides, the IC90 under setting [3] was > 100 µM.
With `COc1cc2c(C(=O)N3CCN(c4ccccc4C)CC3)c(C)oc2cc1Br`, the IC50 was > 100 µM (inactive). For the same compound, the IC50 under setting [1] was > 100 µM. Besides, under setting [2], the IC90 was > 100 µM. In addition, the 90% effect concentration (IC90) under setting [3] was > 100 µM.
On to `O=C(NC1CCCC1)c1ccccc1OCc1ccccc1`, for which the IC50 is 5.69 µM. Besides, the 50% inhibitory concentration (IC50) under setting [1] stood at 37.6 µM. The concentration for an effect of 90% (IC90) under setting [2] was > 100 µM. Besides, under setting [3], the IC90 was > 100 µM.
Regarding `c1ccc(OCc2nnc(-c3ccccc3)o2)cc1`, the concentration for half-maximal inhibition (IC50) is 1.4 µM. Under setting [1], this compound displayed an IC50 of 80.4 µM. For the same compound, the IC90 under setting [2] is > 100 µM. Further, the IC90 under setting [3] is > 100 µM.
As to `CC1CCCN(S(=O)(=O)c2ccc(C(=O)Nc3nnc(-c4ccncc4)o3)cc2)C1` (stereo not drawn), the IC50 was 32.4 µM (inactive). Further, the IC50 under setting [1] turned out to be 49.3 µM. The compound further displayed a concentration for an effect of 90% (IC90) under setting [2] of 78.1 µM. Under setting [3], this compound yielded a 90% effect concentration (IC90) of 64.8 µM.
With `COC(=O)N1C(=O)[C@](Cc2ccccc2)(c2ccccc2)N1C(=O)OC`, the IC50 was > 100 µM (inactive). Further, the IC50 under setting [1] is > 100 µM. For the same compound, under setting [2], the 90% effect concentration (IC90) was > 100 µM. Also, the IC90 under setting [3] is > 100 µM.
As for `CC(=O)n1cc([C@@H]2C=C(C(=O)N3CCN(Cc4ccc5c(c4)OCO5)CC3)O[C@H](OCCCCO)C2)c2ccccc21`, the IC50 was > 100 µM (inactive). The compound further came in with an IC50 under setting [1] of 84 µM. Under setting [2], the IC90 is > 100 µM. Moreover, the IC90 under setting [3] was > 100 µM.
With `Cc1c(NC(=O)c2noc3c2CCc2ccccc2-3)c(=O)n(-c2ccccc2)n1C`, the IC50 was 28.3 µM. Moreover, the 50% inhibitory concentration (IC50) under setting [1] is > 100 µM. For the same compound, the 90% effect concentration (IC90) under setting [2] was > 100 µM. The IC90 under setting [3] was > 50 µM.
Regarding `COc1ccc(C[C@H](C)NC[C@@H](O)c2ccc(O)c(NC=O)c2)cc1`, the IC50 was > 100 µM (inactive). Further, under setting [1], the IC50 was > 100 µM. Further, the concentration for an effect of 90% (IC90) under setting [2] was > 100 µM. For the same compound, the 90% effect concentration (IC90) under setting [3] was > 100 µM.
Consider `COc1ccc(OC(=O)c2cccc([N+](=O)[O-])c2)c(C(=O)/C=C/c2cccs2)c1`, for which the IC50 was 27.5 µM. The same compound returned an IC50 under setting [1] of 68.3 µM. Besides, the 90% effect concentration (IC90) under setting [2] is > 100 µM. The IC90 under setting [3] is > 100 µM.
Regarding `COCc1cc(=O)n2[nH]cc(-c3ccccc3)c2n1`, the 50% inhibitory concentration (IC50) was 10.1 µM. Further, under setting [1], the half-maximal inhibitory concentration (IC50) was determined as 41.4 µM. In addition, the IC90 under setting [2] was > 100 µM. The concentration for an effect of 90% (IC90) under setting [3] was 15.5 µM.
Take `COc1ccc(N2C(=O)NC(=O)/C(=C\c3ccc([N+](=O)[O-])s3)C2=O)cc1`: the IC50 is 16.3 µM (inactive). Further, the IC50 under setting [1] worked out at 22.9 µM. Moreover, the IC90 under setting [2] turned out to be 25.7 µM. Under setting [3], the IC90 is 21.3 µM.
The corresponding values for `CCOC(=O)c1[nH]c2ccccc2c1NC(=O)Nc1ccc(OC)cc1` are > 100 µM (inactive), > 100 µM, > 100 µM and > 100 µM.
The corresponding values for `O=C(/C=C/c1ccc([N+](=O)[O-])cc1)c1cccs1` are 5.35 µM, 22.2 µM, 95.1 µM and 12.2 µM.
On to `COC(=O)c1c(-c2ccc(OC)cc2)oc2ccc(-c3cc(OC)c(OC)c(OC)c3)cc12`, for which the half-inhibitory concentration (IC50) was 7.72 µM. Also, the IC50 under setting [1] was > 100 µM. Besides, under setting [2], the IC90 is > 100 µM. In addition, the IC90 under setting [3] was > 100 µM.
Regarding `Cc1cc(NC(=O)CSc2ncnc3c2cnn3-c2ccccc2)no1`, the IC50 is > 100 µM (inactive). Moreover, the IC50 under setting [1] is > 100 µM. The IC90 under setting [2] is > 100 µM. Besides, the IC90 under setting [3] was > 100 µM.
Consider `CC(C)(C)c1nnc2sc(SCC(=O)c3cccs3)nn2c1=O`, for which the half-inhibitory concentration (IC50) was 19.3 µM. In addition, the 50% inhibitory concentration (IC50) under setting [1] is > 100 µM. Also, under setting [2], the 90% effect concentration (IC90) was > 100 µM. For the same compound, the concentration for an effect of 90% (IC90) under setting [3] is > 100 µM.
As for `Cc1cccc(/C=N\NC(=O)c2csnn2)c1`, the IC50 was 39.5 µM. Also, the concentration for half-maximal inhibition (IC50) under setting [1] was > 100 µM. Under setting [2], the IC90 is > 100 µM. Under setting [3], the concentration for an effect of 90% (IC90) was > 100 µM.

In general, IC50 refers to the midpoint of a concentration-inhibition curve. As a reminder, the IC90 is the concentration needed for an effect of 90%. Lower therefore signals an effect from little substance.
